pIC50: −log10 of the molar value.
Columns and labels:
CCRF-CEM [1] = assay: Ratio of IC50 against CPT-resistant cell line to that of CPT-sensitive cell line expressed as relative resistant index; format: functional, Homo sapiens
CCRF-CEM [2] = assay: Inhibitory concentration against CEM cell growth after incubation in liquid medium for 72 h; format: functional, cell-based; conditions: Homo sapiens
[3] = Inhibitory concentration against CEM/C2 cell growth after incubation in liquid medium for 72 h; format: functional, cell-based; conditions: Homo sapiens, CEM/C2, 72 h

Structure (SMILES)	RRI (CCRF-CEM [1])	pIC50 (CCRF-CEM [2])	pIC50 [3]
COc1cc(-c2c3c4ccccc4oc(=O)c3n3ccc4cc(O)c(OC)cc4c23)ccc1O	5	5.65	4.96
COc1ccc2oc(=O)c3c(c(-c4ccc(O)c(OC)c4)c4c5cc(OC)c(O)cc5ccn43)c2c1	12	6.28	5.20
COc1ccc(-c2c3c4cc5c(cc4oc(=O)c3n3ccc4cc(OC)c(OC)cc4c23)OCO5)cc1OC		< 4.00	< 4.00
COc1cc2c(cc1O)oc(=O)c1c2c(-c2ccc(OC)c(OC)c2)c2c3cc(OC)c(OC)cc3ccn21	2	5.52	5.26
O=c1oc2ccccc2c2c(-c3ccc(O)c(O)c3)c3c4cc(O)c(O)cc4ccn3c12	2	6.37	6.02
CC(=O)Oc1ccc(-c2c3c4cc(OC(C)=O)c(OC(C)=O)cc4oc(=O)c3n3ccc4cc(OC(C)=O)c(OC(C)=O)cc4c23)cc1OC(C)=O	4	5.71	5.16
COc1cc(-c2c3c4ccc(O)cc4oc(=O)c3n3ccc4cc(O)c(OC)cc4c23)ccc1O	164	7.77	5.56
CC[C@@]1(O)C(=O)OCc2c1cc1n(c2=O)Cc2cc3ccccc3nc2-1 [CAMPTOTHECIN]	6400	9.08	5.27
COc1cc(-c2c3c4cc(OC)c(O)cc4oc(=O)c3n3ccc4cc(O)c(OC)cc4c23)ccc1O [LAMELLARIN D]	144	8.30	6.14
